Key:
[1] = biological target: T1, FGF2 (Homo sapiens, UniProt P09038); assay: Thermal shift assay (TSA) of FGFR1/FGF2 complex, FGF2 melting peak; assay type: binding; details: for ΔTm at 2 µM: 2 μM compound; for ΔTm at 25 µM: 25 μM compound; for ΔTm at 10 µM: 10 μM compound; for ΔTm at 100 µM: 100 μM compound
T1 construct: made in house; host or cells: Escherichia coli BL21 (DE3) Star
From the text: (§1) TSA was utilized to biophysically characterize the recombinant human FGFR1/FGF2 complex in the presence or absence of compounds. The assay functions by protein denaturation over a temperature gradient. During protein unfolding, exposed hydrophobic regions bind a dye and fluoresce due to solvent relaxation effects. Changes in the melting temperature of the protein complex in the presence of each compound were monitored and compounds were screened/ranked using this method.
One Shot BL21 (DE3) Star Escherichia coli competent cells (Thermo Fisher) were transformed with a relevant FGF2 plasmid and inoculated onto Ampicillin Luria Broth/Agar plates. Two hundred milliliter portions of Terrific Broth starter cultures were used to inoculate 9 L cultures with ampicillin at a concentration of 100 μg/mL. Cultures were grown to an O.D.600 near 1.0 at 37° C., and induced with IPTG overnight at 18° C. The cells were harvested at 7000 RPM in rotor 6000 for 5 min at 4° C. and stored at −80° C. Bacterial pellets were resuspended in 25 mM Hepes-NaOH, pH 7.5, 250 mM NaCl, and the cells were lysed in 3 cycles on/off for 3 minutes each at 4° C. via sonication. After centrifugation for 30 minutes at 16,000 RPM at 4° C., the isolated pellets were discarded, and the supernatant was filtered supernatant through a […] PES filter using 100 mL superloop. The lysate was purified over a 5 mL S column by washing the column with Lysis buffer for 5 CV then eluting using gradient from 250 mM to 1 M NaCl over 20 CV. The fractions containing FGF2 were identified via SDS-PAGE gel (Expected Mw: 15.2 KDa). The protein was collected and diluted in 20 mM Tris-HCl pH 8.0, 25 mM MgCl2 buffer in order to reach a NaCl concentration of 150 mM. The purified FGF2 was concentrated and stored at −80° C.
(§2) Thawed aliquots of purified FGF2 (1.0 mg/mL) and FGFR1 (1.6 mg/mL) proteins were mixed in a 1:1 molar ratio (64 μM: 64 μM) on ice for 30 min at 4° C. and plated prior to the thermal shift assay (TSA). Complex formation was verified by loading the complexed material on a size exclusion column (superdex 300GL S200) and observing the monodisperse peak corresponding to the FGF2/FGFR1 complex (˜40 kDa). Compounds of the invention were screened in dose response format (0-100 μM) with the FGF2/FGFR1 complex in triplicates. FGF2/FGFR1/compound complexes were mixed in a 1000:1 ratio with Sypro Orange dye (Sigma-Aldrich). The samples were processed using a Bio-Rad CFX C96 Touch quantitative polymerase chain reaction and run using the FRET assay settings with a heating ramp of 0.3° C./s cycling from 4 to 100° C. Data analysis was performed using the Bio-Rad CFX Manager Software (version 3.1, Bio-Rad) and changes in the melting temperature (Tm) of the complex in the presence of each compound were monitored. The results are shown in Tables 2 and 3 below and also in FIG. 1 (for Compound 2).

[2] = biological target: FGFR1 (Homo sapiens, UniProt P11362); assay: Thermal shift assay (TSA) of FGFR1/FGF2 complex, FGFR1 melting peak; assay type: binding; set-up: made in house; host or cells: Escherichia coli BL21 (DE3) Star; details: FGF2/FGFR1 complex; for ΔTm at 2 µM: 2 μM compound; for ΔTm at 25 µM: 25 μM compound; for ΔTm at 10 µM: 10 μM compound; for ΔTm at 100 µM: 100 μM compound
Sequence of FGFR1 (P11362 142-365 limits assumed): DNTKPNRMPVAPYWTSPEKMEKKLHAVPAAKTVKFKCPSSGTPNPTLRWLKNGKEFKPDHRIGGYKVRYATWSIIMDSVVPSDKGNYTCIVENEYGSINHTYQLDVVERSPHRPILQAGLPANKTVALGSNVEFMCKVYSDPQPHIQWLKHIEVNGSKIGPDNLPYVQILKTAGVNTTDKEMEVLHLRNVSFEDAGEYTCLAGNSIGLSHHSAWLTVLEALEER
Sequence of FGFR1 (P09038 156-288 partner limits assumed): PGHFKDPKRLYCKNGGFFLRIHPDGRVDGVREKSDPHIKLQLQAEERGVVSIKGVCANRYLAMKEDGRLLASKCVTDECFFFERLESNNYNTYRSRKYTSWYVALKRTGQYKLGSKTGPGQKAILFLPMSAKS
From the text: as §1
Cell pellets were thawed and resuspend in 100 mL of FGFR1 Lysis Buffer per 9 g of pellet (20 mM Tris-HCl pH 8.0, 500 mM NaCl, 1 mM dithiothreitol) by stirring at 4° C. for 1 hour. Cells were lysed in 3 cycles on/off for 3 minutes each at 4° C. via sonication followed by centrifugation for 30 minutes at 16,000 RPM in rotor F20 at 4° C., after which the supernatant was discarded. This process was then repeated twice. The pellets were resuspended in 150 mL FGFR1 solubilization buffer (8 M urea, 20 mM Tris-HCL pH 8.0, 150 mM NaCl, 1 mM dithiothreitol) by stirring for 1 hour at 4° C., and the solution was subjected to centrifugation for 30 minutes at 16,000 RPM in rotor F20 at 4° C. The pellets were discarded, and the supernatant was filtered through a […] polyethersylfone (PES) filter. After filtration, the supernatant was added dropwise to 1 L FGFR1 refolding buffer (20 mM Tris-HCl pH 8.0, 150 mM NaCl, 0.5 M L-arginine, 25 mM MgCl2) using a glass column. Protein was concentrated by tangential flow from 1 L to 100 mL and dialyzed against 1 L of FGFR1 Dialysis Buffer (20 mM Tris-HCl pH 8.0, 150 mM NaCl, 25 mM MgCl2) for 2 hours at 4° C., and the dialysis step was repeated with fresh buffer for an additional 2 hours at 4° C. The material thus obtained was then centrifuged at 4000 RPM in Eppendorf tabletop centrifuge for 5 minutes and loaded onto 2×5 mL heparin columns. The columns were washed extensively (20 CV) using FGFR1 Heparin Buffer A (20 mM Tris-HCl pH 8.0, 150 mM NaCl, 25 mM MgCl2) and then eluted using FGFR1 Heparin Buffer B (20 mM Tris-HCl pH 8.0, 1.5 M NaCl, 25 mM MgCl2). A large peak was recovered that was >95% pure by SDS-PAGE analysis gel (Expected Mw: 25 KDa). The protein was collected and diluted in 20 mM Tris-HCl pH 8.0, 25 mM MgCl2 buffer in order to reach a NaCl concentration of 150 mM. The FGFR1 thus obtained was concentrated and stored at −80° C.
as §2

T1 sequence (P09038 156-288 limits assumed): as the sequence (P09038 156-288 partner limits assumed) above
T1 sequence (P11362 142-365 partner limits assumed): as the sequence (P11362 142-365 limits assumed) above

SMILES: CCN(CC)c1ccc2c(c1)CCN(C1CCN(Cc3ccc(F)cc3)CC1)C2 [Compound 85, N,N-diethyl-2-(1-(4-fluorobenzyl)piperidin-4-yl)-1,2,3,4-tetrahydroisoquinolin-6-amine]
- ΔTm at 2 µM [1]: 0 °C
- ΔTm at 2 µM [2]: 14 °C

SMILES: N#Cc1ccc2c(c1)CCN(C1CCN(C(c3ccccc3)c3ccccc3)CC1)C2 [Compound 3, 2-(1-benzhydrylpiperidin-4-yl)-1,2,3,4-tetrahydroisoquinoline-6-carbonitrile]
- ΔTm at 25 µM [1]: 3.7 °C
- ΔTm at 25 µM [2]: 0 °C

SMILES: c1ccc(C(c2ccccc2)N2CCC(N3CCc4cnccc4C3)CC2)cc1 [Compound 19, 2-(1-benzhydrylpiperidin-4-yl)-1,2,3,4-tetrahydro-2,6-naphthyridine]
- ΔTm at 25 µM [1]: -3 °C
- ΔTm at 25 µM [2]: 2.8 °C

SMILES: c1ccc(C(c2ccccc2)N2CCC(N3CCc4ncccc4C3)CC2)cc1 [Compound 17, 6-(1-benzhydrylpiperidin-4-yl)-5,6,7,8-tetrahydro-1,6-naphthyridine]
- ΔTm at 10 µM [1]: -2.7 °C
- ΔTm at 10 µM [2]: 3 °C

SMILES: FC1(F)CN(C2CCN(C(c3ccccc3)c3ccccc3)CC2)Cc2ccccc21 [Compound 21, 2-(1-benzhydrylpiperidin-4-yl)-4,4-difluoro-1,2,3,4-tetrahydroisoquinoline]
- ΔTm at 2 µM [1]: -3.6 °C
- ΔTm at 2 µM [2]: 11.6 °C

SMILES: Fc1ccc(CN2CCC(N3CCc4cc(Br)ccc4C3)CC2)cc1 [Compound 81, 6-bromo-2-(1-(4-fluorobenzyl)piperidin-4-yl)-1,2,3,4-tetrahydroisoquinoline]
- ΔTm at 100 µM [1]: 0 °C
- ΔTm at 100 µM [2]: 0.3 °C

SMILES: Fc1cccc2c1CCN(C1CCN(C(c3ccccc3)c3ccccc3)CC1)C2 [Compound 7, 2-(1-benzhydrylpiperidin-4-yl)-5-fluoro-1,2,3,4-tetrahydroisoquinoline]
- ΔTm at 10 µM [1]: -0.2 °C
- ΔTm at 10 µM [2]: 10.7 °C

SMILES: Clc1ccc2c(c1)CCN(C1CCN(C(c3ccccc3)c3ccccc3)CC1)C2 [Compound 5, 2-(1-benzhydrylpiperidin-4-yl)-6-chloro-1,2,3,4-tetrahydroisoquinoline]
- ΔTm at 25 µM [1]: -1.7 °C
- ΔTm at 25 µM [2]: 1.2 °C

SMILES: c1ccc(C(c2ccccc2)N2CCC(N3CCc4cccnc4C3)CC2)cc1 [Compound 14, 7-(1-benzhydrylpiperidin-4-yl)-5,6,7,8-tetrahydro-1,7-naphthyridine]
- ΔTm at 25 µM [1]: -3.3 °C
- ΔTm at 25 µM [2]: 5.4 °C

SMILES: Fc1cccc2c1CN(C1CCN(C(c3ccccc3)c3ccccc3)CC1)CC2 [Compound 9, 2-(1-benzhydrylpiperidin-4-yl)-8-fluoro-1,2,3,4-tetrahydroisoquinoline]
- ΔTm at 100 µM [1]: 0 °C
- ΔTm at 100 µM [2]: 0 °C

SMILES: c1ccc(C(c2ccccc2)N2CCC(N3CCc4ccncc4C3)CC2)cc1 [Compound 4, 2-(1-benzhydrylpiperidin-4-yl)-1,2,3,4-tetrahydro-2,7-naphthyridine]
- ΔTm at 2 µM [1]: -2.2 °C
- ΔTm at 2 µM [2]: 14.5 °C

SMILES: Fc1ccc2c(c1)CCN(C1CCN(C(c3ccccc3)c3ccccc3)CC1)C2 [Compound 6, 2-(1-benzhydrylpiperidin-4-yl)-6-fluoro-1,2,3,4-tetrahydroisoquinoline]
- ΔTm at 25 µM [1]: 0 °C
- ΔTm at 25 µM [2]: 1.5 °C

SMILES: Fc1cccc2c1CCN(C1CN(C(c3ccccc3)c3ccccc3)C1)C2 [Compound 38, 2-(1-benzhydrylazetidin-3-yl)-5-fluoro-1,2,3,4-tetrahydroisoquinoline]
- ΔTm at 2 µM [1]: -2.7 °C
- ΔTm at 2 µM [2]: 9.8 °C

SMILES: Brc1ccc2c(c1)CCN(C1CCN(C(c3ccccc3)c3ccccc3)CC1)C2 [Compound 1, 2-(1-benzhydrylpiperidin-4-yl)-6-bromo-1,2,3,4-tetrahydroisoquinoline]
- ΔTm at 10 µM [1]: -1.5 °C
- ΔTm at 100 µM [1]: -1.8 °C
- ΔTm at 10 µM [2]: 2 °C
- ΔTm at 100 µM [2]: 3 °C

SMILES: Brc1ccc2c(c1)CCN(C1CN(C(c3ccccc3)c3ccccc3)C1)C2 [Compound 43, 2-(1-benzhydrylazetidin-3-yl)-6-bromo-1,2,3,4-tetrahydroisoquinoline]
- ΔTm at 100 µM [1]: -4.5 °C
- ΔTm at 100 µM [2]: 6.6 °C

SMILES: Fc1ccc2c(c1)CN(C1CCN(C(c3ccccc3)c3ccccc3)CC1)CC2 [Compound 8, 2-(1-benzhydrylpiperidin-4-yl)-7-fluoro-1,2,3,4-tetrahydroisoquinoline]
- ΔTm at 10 µM [1]: -0.5 °C
- ΔTm at 10 µM [2]: 3.3 °C

SMILES: CCN(CC)c1ccc2c(c1)CCN(C1CN(C(c3ccccc3)c3ccccc3)C1)C2 [Compound 56, 2-(1-benzhydrylazetidin-3-yl)-N,N-diethyl-1,2,3,4-tetrahydroisoquinolin-6-amine]
- ΔTm at 100 µM [1]: 0 °C
- ΔTm at 100 µM [2]: -0.5 °C
